Experimental findings from PMC3639963, “A New Class of Small Molecule Inhibitor of BMP Signaling” (PLoS ONE, 2013) are described below.

Each structure is given as a SMILES string.

Common to all, as to test: Nanosyn kinase profiling
Holding throughout (assay type): biochemical
Holding throughout (details): read-out: Percentage inhibition; for inhibition at 0.1 µM: 0.1 µM inhibitor; for inhibition at 1 µM: 1 µM inhibitor

The target of one test is T1, LOK (Homo sapiens, UniProt O94804).
T1 construct: purchased Nanosyn (enzymatic panel); SGC in-house recombinant human kinases (DSF panel); Invitrogen (ALK1-6)
The method in brief:
(§1)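 Percent inhibition of each kinase was measured with the inhibitor at 0.1 µM and at 1 µM, as part of a 200-kinase human selectivity panel.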

A further test deals with T2, MAP4K2 (Homo sapiens, UniProt Q12851).
T2 construct: purchased Nanosyn (enzymatic panel); SGC in-house recombinant human kinases (DSF panel); Invitrogen (ALK1-6)
T2 sequence (Q12851 1-820): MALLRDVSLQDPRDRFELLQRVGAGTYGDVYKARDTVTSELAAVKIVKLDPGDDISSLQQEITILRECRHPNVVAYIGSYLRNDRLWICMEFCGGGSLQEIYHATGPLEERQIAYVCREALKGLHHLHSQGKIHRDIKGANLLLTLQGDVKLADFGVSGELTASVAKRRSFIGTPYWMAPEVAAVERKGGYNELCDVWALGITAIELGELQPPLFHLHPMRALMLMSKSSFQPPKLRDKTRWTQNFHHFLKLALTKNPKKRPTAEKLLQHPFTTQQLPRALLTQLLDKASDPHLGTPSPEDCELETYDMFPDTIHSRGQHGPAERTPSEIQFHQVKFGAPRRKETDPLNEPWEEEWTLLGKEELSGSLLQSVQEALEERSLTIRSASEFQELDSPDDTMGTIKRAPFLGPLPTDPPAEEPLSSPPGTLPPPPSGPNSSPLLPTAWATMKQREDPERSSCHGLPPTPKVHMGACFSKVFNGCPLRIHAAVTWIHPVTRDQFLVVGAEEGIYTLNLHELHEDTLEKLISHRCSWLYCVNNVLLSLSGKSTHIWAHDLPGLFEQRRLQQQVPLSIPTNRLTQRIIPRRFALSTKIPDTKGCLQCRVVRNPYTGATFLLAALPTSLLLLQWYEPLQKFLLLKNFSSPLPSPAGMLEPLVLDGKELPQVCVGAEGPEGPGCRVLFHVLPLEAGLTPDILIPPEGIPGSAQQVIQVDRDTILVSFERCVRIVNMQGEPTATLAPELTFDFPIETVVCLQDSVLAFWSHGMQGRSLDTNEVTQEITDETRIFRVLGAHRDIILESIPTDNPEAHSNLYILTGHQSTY
Summed up: as §1

For the next test, the target named is T3, GRK7 (Homo sapiens, UniProt Q8WTQ7).
T3 construct: purchased Nanosyn (enzymatic panel); SGC in-house recombinant human kinases (DSF panel); Invitrogen (ALK1-6)
T3 sequence (Q8WTQ7 1-553): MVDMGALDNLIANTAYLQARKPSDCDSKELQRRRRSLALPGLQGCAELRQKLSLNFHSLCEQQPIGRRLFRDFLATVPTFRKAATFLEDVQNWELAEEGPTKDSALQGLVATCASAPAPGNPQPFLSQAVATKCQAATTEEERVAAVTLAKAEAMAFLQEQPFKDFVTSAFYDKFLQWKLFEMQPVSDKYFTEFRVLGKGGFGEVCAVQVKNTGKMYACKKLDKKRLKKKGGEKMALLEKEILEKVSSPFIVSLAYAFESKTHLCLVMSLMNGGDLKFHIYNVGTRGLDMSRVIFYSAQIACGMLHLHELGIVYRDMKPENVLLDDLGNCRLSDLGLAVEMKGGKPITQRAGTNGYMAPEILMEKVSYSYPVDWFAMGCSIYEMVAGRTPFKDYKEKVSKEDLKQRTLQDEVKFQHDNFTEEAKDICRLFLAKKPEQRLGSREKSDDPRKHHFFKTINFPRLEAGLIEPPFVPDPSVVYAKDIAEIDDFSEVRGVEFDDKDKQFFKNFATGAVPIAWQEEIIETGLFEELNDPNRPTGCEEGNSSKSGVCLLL
The method in brief:
as §1

Another test addresses T4, FER (Homo sapiens, UniProt P16591).
T4 construct: purchased Nanosyn (enzymatic panel); SGC in-house recombinant human kinases (DSF panel); Invitrogen (ALK1-6)
The method in brief: as §1

A further test concerns the target T5, MNK2 (Homo sapiens, UniProt Q9HBH9).
T5 construct: purchased Nanosyn (enzymatic panel); SGC in-house recombinant human kinases (DSF panel); Invitrogen (ALK1-6)
The method in brief:
as §1

For another test, the target named is T6, PI3-K-δ (Homo sapiens, UniProt O00329).
T6 construct: purchased Nanosyn (enzymatic panel); SGC in-house recombinant human kinases (DSF panel); Invitrogen (ALK1-6)
The method in brief: as §1

Another test has as its target T7, ERBB2 (Homo sapiens, UniProt P04626).
T7 construct: purchased Nanosyn (enzymatic panel); SGC in-house recombinant human kinases (DSF panel); Invitrogen (ALK1-6)
Summed up:
as §1

For a further test, the target named is T8, PKCι (Homo sapiens, UniProt P41743).
T8 construct: purchased Nanosyn (enzymatic panel); SGC in-house recombinant human kinases (DSF panel); Invitrogen (ALK1-6)
T8 sequence (P41743 1-596): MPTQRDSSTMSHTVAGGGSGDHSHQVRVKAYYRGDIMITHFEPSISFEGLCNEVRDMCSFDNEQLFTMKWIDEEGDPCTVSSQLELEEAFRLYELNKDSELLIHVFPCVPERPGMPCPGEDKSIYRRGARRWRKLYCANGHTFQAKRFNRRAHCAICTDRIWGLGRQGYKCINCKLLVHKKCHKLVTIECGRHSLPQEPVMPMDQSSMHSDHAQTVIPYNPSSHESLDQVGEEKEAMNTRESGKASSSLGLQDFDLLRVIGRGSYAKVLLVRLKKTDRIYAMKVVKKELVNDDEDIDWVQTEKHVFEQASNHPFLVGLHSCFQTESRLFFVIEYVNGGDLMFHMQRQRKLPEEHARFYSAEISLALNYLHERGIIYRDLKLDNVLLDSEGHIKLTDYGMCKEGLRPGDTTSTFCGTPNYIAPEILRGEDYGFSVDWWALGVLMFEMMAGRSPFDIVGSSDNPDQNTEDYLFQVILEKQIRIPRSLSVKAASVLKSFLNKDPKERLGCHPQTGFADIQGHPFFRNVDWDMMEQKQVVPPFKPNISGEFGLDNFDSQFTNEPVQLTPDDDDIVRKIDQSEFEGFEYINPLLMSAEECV
Summed up:
as §1

T5 sequence (Q9HBH9 whole entry): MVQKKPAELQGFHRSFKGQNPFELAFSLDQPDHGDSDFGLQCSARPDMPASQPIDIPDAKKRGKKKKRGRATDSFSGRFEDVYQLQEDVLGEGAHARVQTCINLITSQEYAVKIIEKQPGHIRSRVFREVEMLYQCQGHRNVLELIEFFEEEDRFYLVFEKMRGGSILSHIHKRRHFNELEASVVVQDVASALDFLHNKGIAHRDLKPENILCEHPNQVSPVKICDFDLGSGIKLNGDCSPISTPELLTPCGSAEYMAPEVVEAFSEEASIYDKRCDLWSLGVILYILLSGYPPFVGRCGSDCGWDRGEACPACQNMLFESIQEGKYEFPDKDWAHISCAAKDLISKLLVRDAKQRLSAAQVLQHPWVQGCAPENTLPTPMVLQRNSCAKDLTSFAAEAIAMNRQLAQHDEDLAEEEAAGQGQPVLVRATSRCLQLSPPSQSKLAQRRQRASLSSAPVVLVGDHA
T1 sequence (O94804 whole entry): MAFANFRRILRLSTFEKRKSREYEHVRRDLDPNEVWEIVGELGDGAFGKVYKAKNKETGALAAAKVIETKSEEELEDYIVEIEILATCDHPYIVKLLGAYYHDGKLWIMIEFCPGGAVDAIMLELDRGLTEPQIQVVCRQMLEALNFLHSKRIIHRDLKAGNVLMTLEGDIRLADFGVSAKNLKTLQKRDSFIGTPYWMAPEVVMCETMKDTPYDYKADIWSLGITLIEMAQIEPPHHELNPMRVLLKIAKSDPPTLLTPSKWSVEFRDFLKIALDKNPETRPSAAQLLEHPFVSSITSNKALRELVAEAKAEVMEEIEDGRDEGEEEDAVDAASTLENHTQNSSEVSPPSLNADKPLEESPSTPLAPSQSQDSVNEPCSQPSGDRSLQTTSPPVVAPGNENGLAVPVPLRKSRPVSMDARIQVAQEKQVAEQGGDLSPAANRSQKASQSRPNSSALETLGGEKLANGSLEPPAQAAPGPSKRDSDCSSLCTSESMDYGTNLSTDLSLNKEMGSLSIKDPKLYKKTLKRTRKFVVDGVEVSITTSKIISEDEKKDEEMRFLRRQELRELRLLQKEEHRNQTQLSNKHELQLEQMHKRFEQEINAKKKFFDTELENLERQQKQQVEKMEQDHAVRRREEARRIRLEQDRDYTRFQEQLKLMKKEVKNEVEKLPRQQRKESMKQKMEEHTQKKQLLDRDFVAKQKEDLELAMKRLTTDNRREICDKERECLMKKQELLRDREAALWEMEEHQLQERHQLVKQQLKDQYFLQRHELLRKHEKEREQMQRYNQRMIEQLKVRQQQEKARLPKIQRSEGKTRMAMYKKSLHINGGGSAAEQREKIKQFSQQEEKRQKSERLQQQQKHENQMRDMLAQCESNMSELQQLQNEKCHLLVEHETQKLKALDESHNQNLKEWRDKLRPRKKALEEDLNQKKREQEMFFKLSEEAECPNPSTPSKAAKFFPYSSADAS
T6 sequence (O00329 whole entry): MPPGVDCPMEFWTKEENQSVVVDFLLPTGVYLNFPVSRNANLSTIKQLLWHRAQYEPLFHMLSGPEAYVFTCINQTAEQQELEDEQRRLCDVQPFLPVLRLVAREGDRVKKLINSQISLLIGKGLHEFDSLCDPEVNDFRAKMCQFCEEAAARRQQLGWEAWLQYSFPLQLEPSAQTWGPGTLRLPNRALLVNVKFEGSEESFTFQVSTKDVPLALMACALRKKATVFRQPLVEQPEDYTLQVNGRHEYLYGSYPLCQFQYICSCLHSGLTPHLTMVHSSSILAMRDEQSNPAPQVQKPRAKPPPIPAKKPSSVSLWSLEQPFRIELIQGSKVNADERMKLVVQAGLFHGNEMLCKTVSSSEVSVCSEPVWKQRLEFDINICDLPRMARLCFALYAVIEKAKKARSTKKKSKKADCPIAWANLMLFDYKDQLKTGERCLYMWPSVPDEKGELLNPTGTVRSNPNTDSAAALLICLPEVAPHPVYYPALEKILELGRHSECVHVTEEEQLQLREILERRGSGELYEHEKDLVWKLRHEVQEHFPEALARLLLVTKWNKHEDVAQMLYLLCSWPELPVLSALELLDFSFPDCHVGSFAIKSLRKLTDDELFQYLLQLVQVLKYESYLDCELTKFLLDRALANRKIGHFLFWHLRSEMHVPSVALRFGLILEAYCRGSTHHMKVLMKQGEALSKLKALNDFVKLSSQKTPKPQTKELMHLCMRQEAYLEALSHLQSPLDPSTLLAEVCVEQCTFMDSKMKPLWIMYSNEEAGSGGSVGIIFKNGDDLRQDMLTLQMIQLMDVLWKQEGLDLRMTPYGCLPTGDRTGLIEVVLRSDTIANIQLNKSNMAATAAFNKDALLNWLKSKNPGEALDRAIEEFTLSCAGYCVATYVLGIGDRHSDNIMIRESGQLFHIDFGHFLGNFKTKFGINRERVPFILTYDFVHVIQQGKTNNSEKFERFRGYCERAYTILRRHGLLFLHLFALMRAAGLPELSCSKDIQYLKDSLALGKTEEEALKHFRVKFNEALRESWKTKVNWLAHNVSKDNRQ
T6 sequence (P27986 whole entry partner): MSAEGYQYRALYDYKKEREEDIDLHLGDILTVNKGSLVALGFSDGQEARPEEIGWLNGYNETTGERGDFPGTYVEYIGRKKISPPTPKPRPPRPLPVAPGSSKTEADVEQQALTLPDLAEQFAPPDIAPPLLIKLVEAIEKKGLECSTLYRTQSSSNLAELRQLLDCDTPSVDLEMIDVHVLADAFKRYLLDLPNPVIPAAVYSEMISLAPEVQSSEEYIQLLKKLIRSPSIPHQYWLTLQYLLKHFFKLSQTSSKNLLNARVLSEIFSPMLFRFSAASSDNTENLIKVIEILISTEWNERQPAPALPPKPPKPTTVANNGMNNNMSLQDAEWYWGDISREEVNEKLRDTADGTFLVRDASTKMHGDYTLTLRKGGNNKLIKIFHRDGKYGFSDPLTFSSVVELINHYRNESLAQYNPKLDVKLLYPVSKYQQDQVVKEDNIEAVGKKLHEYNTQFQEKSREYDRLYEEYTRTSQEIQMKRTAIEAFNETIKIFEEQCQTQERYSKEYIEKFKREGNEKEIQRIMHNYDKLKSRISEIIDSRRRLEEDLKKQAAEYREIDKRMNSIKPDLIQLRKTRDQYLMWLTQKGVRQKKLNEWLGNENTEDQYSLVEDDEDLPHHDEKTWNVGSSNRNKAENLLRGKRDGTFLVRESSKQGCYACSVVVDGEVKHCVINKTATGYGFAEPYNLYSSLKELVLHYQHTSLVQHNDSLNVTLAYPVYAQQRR
T7 sequence (P04626 23-1255): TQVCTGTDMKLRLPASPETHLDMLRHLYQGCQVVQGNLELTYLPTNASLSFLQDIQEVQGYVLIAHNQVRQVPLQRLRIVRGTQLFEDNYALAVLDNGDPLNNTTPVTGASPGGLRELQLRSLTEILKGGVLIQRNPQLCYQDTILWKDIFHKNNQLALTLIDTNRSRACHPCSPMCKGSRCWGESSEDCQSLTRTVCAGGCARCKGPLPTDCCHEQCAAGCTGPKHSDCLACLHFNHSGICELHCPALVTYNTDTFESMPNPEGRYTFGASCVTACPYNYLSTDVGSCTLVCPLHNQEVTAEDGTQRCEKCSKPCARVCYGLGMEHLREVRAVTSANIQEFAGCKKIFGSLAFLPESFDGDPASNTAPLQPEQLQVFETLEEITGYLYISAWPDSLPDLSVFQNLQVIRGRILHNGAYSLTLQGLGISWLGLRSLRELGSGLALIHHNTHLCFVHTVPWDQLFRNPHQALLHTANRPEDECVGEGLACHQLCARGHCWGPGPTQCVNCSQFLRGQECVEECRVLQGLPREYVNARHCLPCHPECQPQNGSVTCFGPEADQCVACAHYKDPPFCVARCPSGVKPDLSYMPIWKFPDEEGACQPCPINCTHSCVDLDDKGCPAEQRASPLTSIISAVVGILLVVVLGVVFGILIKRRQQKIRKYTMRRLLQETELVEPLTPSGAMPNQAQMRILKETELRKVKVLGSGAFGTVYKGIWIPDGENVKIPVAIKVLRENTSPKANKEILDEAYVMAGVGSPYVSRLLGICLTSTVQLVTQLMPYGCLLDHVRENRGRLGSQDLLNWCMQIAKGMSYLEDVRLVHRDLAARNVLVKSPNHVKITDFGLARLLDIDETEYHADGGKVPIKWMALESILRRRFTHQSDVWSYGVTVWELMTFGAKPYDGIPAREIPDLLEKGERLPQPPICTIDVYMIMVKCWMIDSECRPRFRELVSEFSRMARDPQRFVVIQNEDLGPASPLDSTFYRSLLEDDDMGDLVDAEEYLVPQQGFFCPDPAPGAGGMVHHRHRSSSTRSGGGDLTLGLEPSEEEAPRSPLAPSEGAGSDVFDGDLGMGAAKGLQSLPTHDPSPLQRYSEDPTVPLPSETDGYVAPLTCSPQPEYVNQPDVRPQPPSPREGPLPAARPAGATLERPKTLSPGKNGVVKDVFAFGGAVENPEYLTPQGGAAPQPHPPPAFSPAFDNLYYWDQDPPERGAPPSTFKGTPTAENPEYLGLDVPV

In the case of `COc1cc(-c2cc(-c3cccc(O)c3)cnc2N)cc(OC)c1OC` [K02288, 3-[6-amino-5-(3,4,5-trimethoxy-phenyl)-pyridin-3-yl]-phenol], the inhibition at 0.1 µM was 3.5% on LOK; 18% at MAP4K2; 0.2% at GRK7; 0.8% on FER; 1.9% on MNK2; 0.8% on PI3-K-δ. Further, the figures for the inhibition at 0.1 µM at ERBB2 and on PKCι were -5% and 0.3%, respectively. The inhibition at 1 µM at LOK was 25%; at MAP4K2 it was 53%; on GRK7, -3%; at FER it was 7.5%; at MNK2, 3.2%; at PI3-K-δ it was 2.5%. For the same compound, the inhibition at 1 µM at ERBB2 was -3%; at PKCι it was 1.6%.

For the compound `c1ccc2c(-c3cnn4cc(-c5ccc(N6CCNCC6)cc5)cnc34)ccnc2c1` [LDN-193189], the inhibition at 0.1 µM at LOK was 8.3%; at MAP4K2 it was 21%; at GRK7 it was 1.8%; on FER it was 2.8%; at MNK2, 3.7%; at PI3-K-δ it was -1%. For the same compound, the inhibition at 0.1 µM at ERBB2 was determined as 2.1%; at PKCι it was 1.4%. Also, the inhibition at 1 µM at LOK was 38%; on MAP4K2, 65%; on GRK7 it was 0.8%; at FER, 3.7%; at MNK2 it was 31%; on PI3-K-δ, 10%. Further, the inhibition at 1 µM at ERBB2 was determined as 2.1%; at PKCι, 1.5%.

Broadly, the inhibition is the drop in the measured response relative to a control, in per cent.
